For this data set, the system named is human RAGE. In words: psiCHECK on-target activity at 9 concentration points in HEK293A cells, dual-luciferase reporter (Example 8). It is filed as cell-based. As to conditions: psiCHECK system, Table 9. The text has this: As used herein, the term "inhibit" is used interchangeably with "decrease", "silence", "down-regulate", "repress", and other similar terms, and includes any level of inhibition. Inhibition can be assessed in terms of a decrease in the absolute or relative level of one or more of these variables relative to a control level. The control level can be any type of control level used in the art, such as a pre-dose baseline level or a level determined from an untreated or control (e.g., buffer-only control or inert agent control) treated subject, cell, or sample. […] The inhibition rate of target gene expression can be measured using a Dual-Glo® Luciferase Assay System: the Firefly chemiluminescence value (Fir) and the Renilla chemiluminescence value (Ren) are each read, and the relative value Ratio = Ren/Fir is calculated. In the present disclosure, the ratio of the remaining mRNA expression level (or residual activity%) = Ratio (RNAi agent-treated group)/Ratio (RNAi agent-free control group), and the inhibition rate (%) = 100% - remaining mRNA expression level (%).
RNAi agents were subjected to an in vitro molecular-level simulation of on-target activity screening in HEK293A cells using 9 concentration gradients.
HEK293A cells were cultured at 37 °C with 5% CO2 in a DMEM high-glucose culture medium containing 10% fetal bovine serum. 24 h prior to transfection, the HEK293A cells were seeded into a 96-well plate at a density of 1 × 10^4 cells per well, with each well containing 100 µL of the culture medium.
The cells were co-transfected with the RNAi agents and corresponding plasmids using Lipofectamine2000 (ThermoFisher, 11668019) according to the instructions, with 0.3 µL of Lipofectamine2000 used per well. The amount of plasmids for transfection was 20 ng per well. For on-target sequence plasmids, a total of 9 concentration points were set for the RNAi agents; the highest concentration point final concentration was 20 nM, and a 3-fold serial dilution was performed to obtain 20.0000 nM, 6.6667 nM, 2.2222 nM, 0.7407 nM, 0.2469 nM, 0.0823 nM, 0.0274 nM, 0.0091 nM, and 0.0030 nM. 24 h after transfection, the on-target levels were determined using a Dual-Luciferase Reporter Assay System (Promega, E2940). Table 9. The IC50 activity of RNAi agents in a psiCHECK system
A general note: A reporter such as luciferase makes a cellular process visible.

This passage reports IC50 results from EP4768032A1, “RAGE-TARGETED RNAI AGENT AND PHARMACEUTICAL USE THEREOF” (Tuojie Biotech (Shanghai) Co., Ltd., priority 2023, dated 2025).

pIC50: −log10 of the molar value.

In the case of “TJR103633-TJ-16: RNAi agent containing targeting ligand I-14: SS strand SEQ ID NO: 21, AS strand SEQ ID NO: 47 (sense CUGUCAGCAUCAGCAUCAA; antisense UUGAUGCUGAUGCUGACAGCA; targeting ligand I-14 conjugated, modification pattern not given here)”, the negative logarithm of the IC50 (pIC50) (usually the IC50 on a negative log10 scale, so that one unit is a factor of ten) is 9.46.
As for “TJR103638-TJ-16: RNAi agent containing targeting ligand I-14: SS strand SEQ ID NO: 26, AS strand SEQ ID NO: 52 (sense CCUUUUCUUUUUCCCUUGA; antisense UCAAGGGAAAAAGAAAAGGGA; targeting ligand I-14 conjugated, modification pattern not given here)”, the pIC50 was 9.01.
“TJR103635-TJ-16: RNAi agent containing targeting ligand I-14: SS strand SEQ ID NO: 23, AS strand SEQ ID NO: 49 (sense AGAGGAGGAGCGUGCAGAA; antisense UUCUGCACGCUCCUCCUCUUC; targeting ligand I-14 conjugated, modification pattern not given here)”: the pIC50 was 9.20.
For the substance “TJR103637-TJ-16: RNAi agent containing targeting ligand I-14: SS strand SEQ ID NO: 25, AS strand SEQ ID NO: 51 (sense CUUUUCUUUUUCCCUUGAA; antisense UUCAAGGGAAAAAGAAAAGGG; targeting ligand I-14 conjugated, modification pattern not given here)”, the pIC50 was 9.08.
In turn, “TJR103634-TJ-16: RNAi agent containing targeting ligand I-14: SS strand SEQ ID NO: 22, AS strand SEQ ID NO: 48 (sense GACCAACUCUCUCCUGUAA; antisense UUACAGGAGAGAGUUGGUCUG; targeting ligand I-14 conjugated, modification pattern not given here)” showed a pIC50 of 9.42.
Take “TJR103636-TJ-16: RNAi agent containing targeting ligand I-14: SS strand SEQ ID NO: 24, AS strand SEQ ID NO: 50 (sense CAGUCGGAGCUAAUGGUGA; antisense UCACCAUUAGCUCCGACUGCA; targeting ligand I-14 conjugated, modification pattern not given here)”: the negative logarithm of the IC50 (pIC50) was 9.54.
